One data set has as its system Coxsackievirus B4. Put plainly: microbe, parasite or virus in culture. The format is cell-based. The settings on record: Enterovirus B, B4 / CVB4, read-out: EC50 CVB4.
The subject of a further data set is Coxsackievirus B5. Put plainly: microbe, parasite or virus in culture. The format is cell-based. The settings on record: Enterovirus B, B5 / CVB5, read-out: EC50 CVB5.
A further data set concerns Coxsackievirus B1. Put plainly: microbe, parasite or virus in culture. The format is cell-based. The settings on record: Enterovirus B, B1 / CVB1, read-out: EC50 CVB1.
The subject of another data set is Coxsackievirus B2. Put plainly: microbe, parasite or virus in culture. The format is cell-based. To be noted: Enterovirus B, B2 / CVB2, read-out: EC50 CVB2.
The nature of data set [1]: in vitro. To be noted: human.
For another data set, the system named is Echovirus 30. Put plainly: microbe, parasite or virus in culture. The format is cell-based. To be noted: Enterovirus B, read-out: EC50 ECHO30.
The test system of another data set is Poliovirus 3. Put plainly: microbe, parasite or virus in culture. The settings on record: Enterovirus C, read-out: EC50 PV3. The format is cell-based.
For the next data set, the system named is Echovirus 11. Put plainly: microbe, parasite or virus in culture. To be noted: Enterovirus B, read-out: EC50 ECHO11. The format is cell-based.
In another data set the test system is Echovirus 9. Put plainly: microbe, parasite or virus in culture. The format is cell-based. To be noted: Enterovirus B, read-out: EC50 ECHO09.
The next data set deals with Enterovirus 71. Put plainly: microbe, parasite or virus in culture. The format is cell-based. To be noted: Enterovirus A, EV71, read-out: EC50 EV71.
For another data set, the system named is Echovirus 7. Put plainly: microbe, parasite or virus in culture. The settings on record: Enterovirus B, read-out: EC50 ECHO07. The format is cell-based.
The test system of a further data set is Poliovirus 1. Put plainly: microbe, parasite or virus in culture. The format is cell-based. The settings on record: Enterovirus C, read-out: EC50 PV1.
For another data set, the system named is Coxsackievirus A9. Put plainly: microbe, parasite or virus in culture. The format is cell-based. To be noted: Enterovirus B, A9, read-out: EC50 COX A9.
A further data set concerns Coxsackievirus B3-H3. Put plainly: microbe, parasite or virus in culture. The format is cell-based. To be noted: Coxsackievirus, B3 / CVB3, read-out: EC50 CVB3-H3.
A further data set deals with Echovirus 6. Put plainly: microbe, parasite or virus in culture. The format is cell-based. To be noted: Enterovirus B, read-out: EC50 ECHO06.
In a further data set the test system is Echovirus 25. Put plainly: microbe, parasite or virus in culture. The format is cell-based. The settings on record: Enterovirus B, read-out: EC50 ECHO25.
The nature of data set [2]: in vitro. The settings on record: African green monkey.
A further data set has as its system Measles. Put plainly: microbe, parasite or virus in culture. The format is cell-based. To be noted: Measles morbillivirus, Vero 76, read-out: EC50 Measles.
For another data set, the system named is Enterovirus D68/Fermon. Put plainly: Antiviral assay, Enterovirus D68 strain Fermon in RD cells. The format is cell-based. To be noted: Enterovirus D.
Data set [3] has as its system Enterovirus D68/US/KY/14-18953. Put plainly: Antiviral assay, Enterovirus D68 strain US/KY/14-18953 in RD cells. The format is cell-based. To be noted: Enterovirus D.
The nature of data set [4]: in vitro.
Data set [5] relates to Enterovirus D68/US/Mo/14-18949. Put plainly: Antiviral assay, Enterovirus D68 strain US/Mo/14-18949 in RD cells. The format is cell-based. The settings on record: Enterovirus D.
Another data set concerns Rift Valley virus. Put plainly: organism not typed. The format is cell-based. The settings on record: Vero 76, read-out: EC50 Rift Valley virus.
Data set [6] in a line: in vitro. The settings on record: dog.
The subject of data set [7] is RSV (resp syncitial virus). Put plainly: microbe, parasite or virus in culture. The settings on record: human respiratory syncytial virus, MA104, read-out: EC50 RSV. The format is cell-based.
The next data set concerns Influenza A H1N1. Put plainly: microbe, parasite or virus in culture. The format is cell-based. To be noted: Influenza A virus, H1N1, MDCK, read-out: EC50 Influenza A H1N1.
A further data set relates to Punta Toro virus. Put plainly: microbe, parasite or virus in culture. The format is cell-based. To be noted: Punta Toro virus, Vero 76, read-out: EC50 Punta Toro virus.
The next data set has as its system Yellow Fever Virus. Put plainly: microbe, parasite or virus in culture. The format is cell-based. To be noted: Yellow fever virus, Vero, read-out: EC50 Yellow Fever Virus.
The nature of data set [8]: in vitro. To be noted: African green monkey. The source holds these as a separate data set.

By EC50 is commonly meant the concentration at which the effect is half-maximal.

SMILES strings stand for the structures. Like-named read-outs stand apart in the source and are kept apart here.

Take `CC(C)n1ncc2c(N(C(=O)c3ccc(F)cc3)C(=O)c3ccc(F)cc3)cc(-c3cccs3)nc21` [JX-039]: the 50% effective concentration (EC50) in the data set with Coxsackievirus B4 is > 10 µM; in the data set on Coxsackievirus B5, > 10 µM; in the data set with Coxsackievirus B1 it was 4.7 µM; in the data set with Coxsackievirus B2, 4.7 µM; with Echovirus 30, > 10 µM; in the data set on Poliovirus 3, > 10 µM. For the same compound, the EC50 in the data set with Echovirus 11 is > 10 µM; with Echovirus 9, > 10 µM; with Enterovirus 71, 3.2 ± 0.1 µM; in the data set on Echovirus 7, > 10 µM; in the data set with Poliovirus 1, > 10 µM; in the data set with Coxsackievirus A9, 4.5 µM. Moreover, the EC50 is 4.7 µM with Coxsackievirus B3-H3, 2.4 µM in the data set on Echovirus 6 and > 10 µM in the data set on Echovirus 25. This compound also gave a CC50 in the data set “in vitro [1]” of 10 µM.
Regarding `Nc1cc2nc[nH]c2c(=O)[nH]1` [3-Deazaguanine, reference compound], in “in vitro [2]”, the CC50 was > 100 µM. The EC50 in the data set with Measles is 2.4 µM.
For `CC(C)n1ncc2c(NC(=O)c3ccc(F)cc3)cc(-c3cccs3)nc21` [JX-054], the EC50 stood at 4.7 µM in the data set on Coxsackievirus B4; 4.7 µM in the data set on Coxsackievirus B5; 2.4 µM with Enterovirus D68/Fermon; 3.4 ± 1.18 µM in data set [3]; 4.7 µM with Coxsackievirus B1; 4.7 µM in the data set on Coxsackievirus B2. In addition, the EC50 with Echovirus 30 is 4.7 µM; in the data set with Poliovirus 3, > 10 µM; in the data set with Echovirus 11 it was 3.1 µM; with Echovirus 9 it was 2.4 µM; with Enterovirus 71, 4 µM; in the data set with Echovirus 7, 4.7 µM. The EC50 is > 10 µM in the data set on Poliovirus 1, 4.7 µM in the data set with Coxsackievirus A9, 4.7 µM in the data set on Coxsackievirus B3-H3 and 2.53 ± 0.23 µM in data set [5]. In the data set “in vitro [4]”, the CC50 was determined as 50 µM.
As for `NC(=O)c1ncn([C@@H]2O[C@H](CO)[C@@H](O)[C@H]2O)n1` [Ribavirin, reference compound], the EC50 worked out at 9.1 µM in the data set with Rift Valley virus, 12 µM in data set [7], 7.5 µM in the data set on Influenza A H1N1 and 11 µM in the data set with Punta Toro virus. In the data set “in vitro [6]”, the CC50 was > 320 µM.
`O=c1cnn([C@@H]2O[C@H](CO)[C@@H](O)[C@H]2O)c(=O)[nH]1` [Compound 6-Azauridine, 6-Azauridine, reference compound]: the concentration giving a half-maximal response (EC50) with Yellow Fever Virus was 0.29 µM. The same compound displayed a CC50 in the data set “in vitro [8]” of 10 µM.

Values taken from patent publication US11787799B2 (priority 2015, dated 2023).
